Test results as given in patent US20240226234A1, “WNT5A PEPTIDES FOR THE TREATMENT OF ACUTE M[…]” (W[…], priority 2021, published 2024).
No end group written: not given here. *: point of attachment. For = O=C*

Columns and labels:
HL60 cells [1] = assay: Cell growth assay, HL60 cells; assay type: cell-based, human; conditions: Foxy-5 100 μM, 72 h
Procedure: (§1) A panel of human myeloid leukemia cell lines (HL60, K562, KG1a, THP1 and U937) and HS-5 mesenchymal stromal cells lineage were cultured in Roswell Park Memorial Institute medium-1640 (RPMI; Sigma) containing 10% Fetal Bovine Serum (Gibco), glutamine (2 mM; Sigma), penicillin (100 μg/mL; Sigma), streptomycin (100 μg/mL; Sigma), and amphotericin B (0.25 μg/mL; Gibco). The cells were maintained in a humidified atmosphere at 37° C. and 5% CO2 and the experiments were performed when they reached exponential growth. For the assays, cells were seeded on a 24-well plate and treated or not with Foxy-5 for 72 hours.
Cells treated with Foxy or with vehicle were collected and cell number was evaluated by manual counting in monoculture and by microscopy with Image J software analysis in 2D culture.
Next, we evaluated the proliferation rates since this process is modulated by ROS. We treated the cells with Foxy-5 (100 μM) or with vehicle (DMSO) during 72 hours, and then cell growth was analyzed by counting the cells in monoculture, manually, or by the Image J software analysis of the 2D cultures. […] Similar results were obtained in the 2D culture system using leukemia cells and HS-5 mesenchymal stromal cells.

HL60 cells [2] = assay: Autophagy assay (acridine orange), HL60 cells; assay type: cell-based, human; conditions: HL60, 2D culture, 72 h
Procedure: as §1
(§2) Cells treated with Foxy or with vehicle were collected and acids vesicles were measured by flow cytometry following staining with Acridine Orange (0.01 mg/mL; Sigma). Acquisition of cells was performed on a FACScalibur flow cytometer (BD) and analysis was carried out using the FlowJo software 4.
(§3) As autophagy is required for sustaining leukemia cell growth by induction of ROS production, we measured the levels of acidic granule formation by flow cytometry after Foxy-5 or vehicle treatment. […]

KG1a cells [3] = assay: Autophagy assay (acridine orange), KG1a cells; assay type: cell-based, human; conditions: 2D culture, 72 h
Procedure: as §1, §2, §3

KG1a cells [4] = assay: ROS production by flow cytometry, KG1a cells; assay type: cell-based, human; conditions: 72 h; for ROS production (MFI): 2D culture on HS5 stromal cells; for ROS production (mean fluorescence intensity): monoculture
Procedure: as §1
(§4) Cells treated with Foxy or with vehicle were collected and intracellular ROS generation was measured by flow cytometry following staining with DCFDA ([…]; Sigma). Acquisition of cells was performed on a FACScalibur flow cytometer (BD) and analysis was carried out using the FlowJo software.
(§5) Leukemia cell lines were treated for 72 h with Foxy-5, at doses of 50 and 100 μM, or vehicle, stained with DCFHA dye, and analyzed by flow cytometry.

HL60 cells [5] = assay: Transwell chemotaxis assay toward CXCL12, HL60 cells; assay type: cell-based, human; conditions: HL60, Foxy-5 100 μM 72 h pretreatment, CXCL12 100 ng/mL, 24 h
Procedure: Leukemic cell lines, pretreated or not with Foxy-5 (72 hours of stimulation) were tested for chemotaxis in Transwell-based assays for Chemotaxis (6.5 mm diameter, 8 μm pore size; Corning). Polycarbonate membranes were incubated with poly-L-lysine (1 mg/mL) for 1 hour at 37° C. followed by saline buffer washing. Briefly, cells were collected, washed with media containing bovine serum albumin (0.1% BSA; Sigma), and then seeded at a density of 5×10^5 cells into the upper chamber of the transwell. The lower chamber was filled with media containing 0.5% BSA (negative control), media containing 10% FBS (positive control) and media 5 containing 0.5% BSA with CXCL12 (100 ng/ml; Peprotech) (Melo et al., 2014). Following 6 h or 24 h of incubation at 37° C., cells that migrated into the lower chamber were collected, centrifuged, resuspended in saline buffer and counted. The number of migrated cells was expressed as a percentage of the input, i.e., the cells number applied directly to the lower compartment in parallel wells. The migration of cells was normalized to 100%+/−standard deviation (SD) of triplicates (Favaro et al., 2013).
We investigated whether restoring of WNT5A could enable the modulation CXCL12-induced chemotaxis of leukemia cells. […]

KG1a cells [6] = assay: Cell cycle assay, KG1a cells; assay type: cell-based, human; conditions: 72 h
Procedure: as §1
Cells treated with Foxy or with vehicle were collected and fixed, at least, 24 hours in 70% ethanol. DNA was stained with a buffer containing iodide propidium (20 μg/mL; Sigma) and RNase A (10 μg/mL; Sigma). Cell fluorescence was detected with a FACSCalibur flow cytometer (BD). The proportions of cells in the cell cycle phases were analyzed by Modifit (Verify Software House Inc), according to DNA distributions.
As we observed a reduction in the leukemic proliferation after Foxy-5 treatment, we also analyzed the cell cycle phases. Leukemia cell lines were treated for 72 hours with Foxy-5, at doses of 50 μM and 100 μM, or vehicle, stained with the Piper buffer containing RNAse and iodeto propidium and then analyzed by flow cytometry.

U937 cells = assay: ROS production by flow cytometry, U937 cells; assay type: cell-based, human; conditions: 72 h; for ROS production (MFI): U937, 2D culture on HS5 stromal cells; for ROS production (mean fluorescence intensity): U937, monoculture
Procedure: as §1, §4, §5

U937 xenografts = assay: U937 xenograft mouse model, tumour growth; assay type: in vivo; conditions: NOD/SCID mice, Foxy-5 40 μg/μL i.p. once every 2 days
Excerpt: The control group received equal amounts of vehicle solution.

Substance: Foxy-5: Formylated hexapeptide fragment of WNT5A: MDGCEL (SEQ. ID. NO. 3) with methionine in position 1 as N-formyl methionine; WNT5A-mimicking compound (For-MDGCEL; listed as Homo sapiens)
- reduced cell growth compared to vehicle treated cells (HL60 cells [1]; HL60, 2D culture with HS-5 stromal cells): 1.56 fold decrease
- reduced cell growth compared to vehicle treated cells (HL60 cells [1]; HL60, monoculture): 1.22 fold decrease
- autophagy (acidic granule formation, acridine orange, average) (HL60 cells [2]; Foxy-5 50 μM): 10.04 (range 7.20-11.93) MFI
- autophagy (acidic granule formation, acridine orange, average) (HL60 cells [2]; Foxy-5 100 μM): 6.60 (range 5.42-6.69) MFI
- autophagy (acidic granule formation, acridine orange, average) (KG1a cells [3]; Foxy-5 50 μM): 27.30 (range 27.20-29.83) MFI
- autophagy (acidic granule formation, acridine orange, average) (KG1a cells [3]; Foxy-5 100 μM): 21.55 (range 19.05-22.40) MFI
- ROS production (MFI) (KG1a cells [4]; Foxy-5 50 μM): 75.03 (range 75.03-77.70) MFI
- ROS production (MFI) (KG1a cells [4]; Foxy-5 100 μM): 69.00 (range 68.00-72.00) MFI
- ROS production (mean fluorescence intensity) (KG1a cells [4]; Foxy-5 50 μM): 36.30 (range 35.80-36.80) MFI
- ROS production (mean fluorescence intensity) (KG1a cells [4]; Foxy-5 100 μM): 29.72 (range 28.10-31.33) MFI
- CXCL12-induced chemotaxis (migrated cells as percentage of the input, average) (HL60 cells [5]): 4.31%
- cells in G0/G1 cell cycle phase (average) (KG1a cells [6]; co-cultured with HS5 stromal cells, Foxy-5 50 μM): 78.58%
- cells in G0/G1 cell cycle phase (average) (KG1a cells [6]; co-cultured with HS5 stromal cells, Foxy-5 100 μM): 76.53%
- cells in G0/G1 cell cycle phase (average) (KG1a cells [6]; monoculture, Foxy-5 50 μM): 69.95%
- cells in G0/G1 cell cycle phase (average) (KG1a cells [6]; monoculture, Foxy-5 100 μM): 73.79%
- ROS production (MFI) (U937 cells; Foxy-5 50 μM): 20.90 (range 19.90-22.63) MFI
- ROS production (MFI) (U937 cells; Foxy-5 100 μM): 23.50 (range 21.70-23.80) MFI
- ROS production (mean fluorescence intensity) (U937 cells; Foxy-5 50 μM): 7.32 (range 4.80-8.67) MFI
- ROS production (mean fluorescence intensity) (U937 cells; Foxy-5 100 μM): 7.09 (range 4.70-8.40) MFI
- tumour volume (median) (U937 xenografts; 9 days): 469 mm^3
- inhibition of tumour growth (U937 xenografts; vs control group at day 9): 55.46%
- inhibition of tumour weight (U937 xenografts; vs control group at day 9): 45.51%
